In US20240209028A1, “CNP COMPOUNDS” (priority 2022, published 2024):
Read-outs that look alike come from different tables or passages of the source. Starred links: 1 amine or outer side, 2 acyl side, 3 side chain; linkers in the order of their positions; H or OH if unused. Positions of bridges follow the written chain, without caps; N, C: chain ends. Residues, ends and D or L forms follow the SMILES beside them. *: point of attachment. C18 diacid = O=C(O)CCCCCCCCCCCCCCCCC(=O)*; γGlu = O=C(O)[C@H](CCC(=O)[*:2])N[*:1]; AEEA = NCCOCCOCC(=O)O

Assays:
[1] = PK after i.v. and s.c. administration to domestic LYD pig; conditions: female, in vivo
Description: The purpose of this study was to investigate pharmacokinetic and pharmacodynamic properties after intravenous (i.v.) and subcutaneous (s.c.) administration to Gottingen Minipig and domestic LYD pig, and to estimate bioavailability after s.c. dosing. Quantitative plasma analysis of CNP and cGMP levels were performed as described in
Animals and dosing: The pharmacokinetic and pharmacodynamic studies in Gottingen Minipig or domestic LYD pig were conducted at CRO Minerva Imaging or Novo Nordisk A/S, respectively. CNP compounds were dosed to normal female 1) Gottingen minipigs 6-12 months of age with an average weight of 22 kg or 2) domestic LYD pigs 4-5 months of age with and average weight of 80 kg. At least one week prior to dosing, permanent central venous catheters were implanted for blood sampling and intravenous (i.v.) dosing. For subcutaneous (s.c.) dosing, the pigs were ultrasound scanned and the optimal injection area laterally on the neck marked by a permanent tattoo. An insulin pen (NovoPen Echo or NovoPen 4) and insulin needle (NovoFine 32G/4 mm or NovoTwist 32G/5 mm) were used for accurate deposition of the CNP formulations in the subcutaneous fat tissue with the needle perpendicular to the skin.
CNP compounds were formulated according to the principles in General Methods of Preparation—Method G and were either A) 8 mM sodium phosphate, 250 mM glycerol, pH 6.5, B) 5 mM sodium acetate, 250 mM glycerol, pH 4.0, C) 5 mM sodium acetate, 240 mM propylene glycol, pH=4.0, D) 8 mM sodium phosphate, 250 mM glycerol, pH 7.5 or E) 20 mM sodium phosphate, 223 mM propylene glycol, pH 6.0.
Intravenously, the CNP compounds were dosed at 30-60 nmol/kg to Minipig and 15-43 nmol/kg to domestic pig using formulations A-E. Subcutaneously, the CNP compounds were dosed at 55-62 nmol/kg to Minipig and 20-30 nmol/kg to domestic pig using formulations A-D.
Sampling: Blood samples of approximately 1 mL were collected pre dose and up to 14 days post dose into EDTA-coated tubes (8 mM) for cGMP and CNP compound analysis by LC-MS. In few instances, cGMP was only analysed up to 48 hours post dose after intravenous dosing in domestic LYD pig. The blood samples were kept on wet ice for maximum 30 minutes until centrifugation for 10 minutes at 4° C. and minimum 1500G, and the plasma samples were stored at −20° C. until analysis.
Plasma concentration-time profiles were analyzed by non-compartmental PK analysis using Phoenix WinNonlin 8.1, Pharsight Inc., Mountain View, CA, USA. Calculation of the area under the plasma concentration-time curve (AUC) was based on the “linear up log down” method, and uniform weighting was used for estimation of the terminal rate constant (λz). S.c. bioavailability (F) was calculated as the dose-normalized AUC (AUC/dose) after s.c. administration divided by the AUC/dose after i.v. administration. […]

[2] = biological target: T1, human natriuretic peptide receptor 2 (hNPR2) (Homo sapiens, UniProt P20594); assay: In vitro hNPR2 activity assay (cGMP GloSensor reporter, HEK293); type: cell-based
T1 construct: expressed in transfected cells; host or cells: HEK293 (ATCC CRL-1573), clone 35, co-transfected with pGloSensor-42F
T1 sequence (P20594 23-1047): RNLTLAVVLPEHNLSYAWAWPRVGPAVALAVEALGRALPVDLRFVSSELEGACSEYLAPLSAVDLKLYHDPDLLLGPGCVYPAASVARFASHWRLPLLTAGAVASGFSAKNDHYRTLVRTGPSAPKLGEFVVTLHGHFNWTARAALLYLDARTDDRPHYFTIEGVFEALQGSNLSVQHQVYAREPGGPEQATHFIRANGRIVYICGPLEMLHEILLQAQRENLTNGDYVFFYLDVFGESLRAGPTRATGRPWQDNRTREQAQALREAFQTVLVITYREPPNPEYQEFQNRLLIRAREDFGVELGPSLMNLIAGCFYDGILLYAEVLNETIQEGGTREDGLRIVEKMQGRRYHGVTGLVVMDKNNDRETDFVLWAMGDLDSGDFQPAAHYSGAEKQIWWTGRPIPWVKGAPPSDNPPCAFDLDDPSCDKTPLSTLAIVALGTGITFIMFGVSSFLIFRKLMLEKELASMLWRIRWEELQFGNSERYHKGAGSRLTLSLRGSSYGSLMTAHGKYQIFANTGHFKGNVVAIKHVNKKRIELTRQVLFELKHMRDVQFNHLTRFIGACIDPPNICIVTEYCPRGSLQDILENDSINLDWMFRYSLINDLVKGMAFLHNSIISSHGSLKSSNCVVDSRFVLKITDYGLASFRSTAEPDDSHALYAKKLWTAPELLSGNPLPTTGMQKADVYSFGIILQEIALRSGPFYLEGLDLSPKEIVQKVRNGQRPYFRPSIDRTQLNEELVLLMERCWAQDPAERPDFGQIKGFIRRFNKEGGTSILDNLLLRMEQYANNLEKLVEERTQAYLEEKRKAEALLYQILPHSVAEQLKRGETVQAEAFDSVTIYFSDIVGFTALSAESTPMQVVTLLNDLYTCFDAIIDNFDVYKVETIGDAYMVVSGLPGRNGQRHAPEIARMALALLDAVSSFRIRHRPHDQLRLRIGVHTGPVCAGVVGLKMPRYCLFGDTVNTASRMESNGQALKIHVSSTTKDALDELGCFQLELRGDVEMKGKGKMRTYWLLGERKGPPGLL
Summary of the method: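 Potency is the EC50 from a four-parameter logistic fit, also expressed relative to the in-plate CNP22 control (×100), with at least two replicates. Compounds (ten concentrations, […], HSA-free diluent with 1% OVA, 0.01% Tween20) were incubated 30 min at 37 °C on HEK293 cells co-expressing hNPR2 and a GloSensor cGMP luciferase. Luminescence detected with Bright-Glo.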

[3] = CNP local tolerance study in LYD pigs (s.c. injection, histopathology); type: in vivo, domestic LYD pig; conditions: subcutaneous injections in the pig
Source text: The purpose of this study was to evaluate the local tissue reaction response to subcutaneous injection of CNP compounds in pigs.
Procedure: In domestic pigs, the injection site was subjected to histopathologic examination after subcutaneous dosing. Injections were placed mid-back between the shoulder and hip on both sides of the dorsal midline, and one or two days before injection sites of 2×2 cm were shaved and marked by permanent ink under light anaesthesia. Each injection consisted of 100 or 200 μl formulation with a concentration of approx. 4400 μM. CNP compound formulations were prepared according to the principles in General Methods of Preparation—Method G, and were either A) 8 mM sodium phosphate, 250 mM glycerol, pH 6.5, B) 5 mM sodium acetate, 250 mM glycerol, pH 4.0 or C) 5 mM sodium acetate, 240 mM propylene glycol, pH 4.0 and physiological saline was included as negative control.
On Day 1 the pigs were lightly anaesthetised. An insulin pen (NovoPen 4) and insulin needle (NovoTwist 32G/5 mm) were used for accurate deposition of the CNP formulations in the subcutaneous fat tissue with the needle perpendicular to the skin. On Day 5 (4 days post injection) or 6 (5 days post injection), the pigs were euthanised, and the injection sites were removed and fixed in 4% phosphate buffered neutral formaldehyde in sealed plastic containers. The tissue blocks were prefixed for 2-4 hours in 10% buffered formalin, cut into 2 mm thick slabs with a multi knife, examined for macroscopic changes and finally fixed overnight in cassettes. Two slabs of tissue were selected for light microscopic evaluation where the tissue reaction was maximal or alternatively in the central part of the injection site. Three to four 2-4 μm sections were cut from three levels at 100 μm distance, stained with haematoxylin and eosin (H&E) and evaluated in a light microscope. Histopathological changes were graded on a 5-level scale ((Minimal (Min), Mild (Mil), Moderate (Mod), Marked (Mar) and Severe (Sev)). The studies are summarised in Table 18.
Results: The results are summarised in Table 19. * Necrosis was used as a marker for local subcutaneous reactions; **NAD: No Abnormalities Detected

[4] = iv, Domestic LYD pig, i.v., read-out: CL (ml/hr/kg), Intravenous PK (converted)
[5] = iv, Domestic LYD pig, i.v., read-out: T½, iv (converted)

CC[C@H](C)[C@@H]1NC(=O)[C@H](CCCNC(=N)N)NC(=O)[C@H](CC(=O)O)NC(=O)[C@H](CC(C)C)NC(=O)[C@@H]2CCCN2C(=O)[C@H](CC(C)C)NC(=O)CNC(=O)[C@H](Cc2ccccc2)NC(=O)[C@@H](NC(=O)CNC(=O)[C@H](CCCCN)NC(=O)[C@H](CO)NC(=O)[C@H](CC(C)C)NC(=O)CNC(=O)[C@H](CCCCN)NC(=O)[C@H](CCCCN)NC(=O)[C@H](CCC(N)=O)NC(=O)[C@H](C)NC(=O)CNC(=O)[C@H](CCC(=O)O)NC(=O)[C@H](Cc2ccc(O)cc2)NC(=O)COCCOCCNC(=O)COCCOCCNC(=O)CC[C@H](NC(=O)CCCCCCCCCCCCCCCCC(=O)O)C(=O)O)CSSC[C@@H](C(=O)O)NC(=O)CNC(=O)[C@H](CC(C)C)NC(=O)CNC(=O)[C@H](CO)NC(=O)[C@H](CC(C)C)NC(=O)[C@H](CO)NC(=O)CNC1=O [Compound 1225] ({C18 diacid-γGlu-AEEA-AEEA}-YEGAQKKGLSKGCFGLPLDRIGSLSGLGC-OH; disulfide 13-29)
clearance [1, 4]: 3.23 mL/h/kg
half-life [1, 5]: 15 h

CC[C@H](C)[C@@H]1NC(=O)[C@H](CCCNC(=N)N)NC(=O)[C@H](CC(=O)O)NC(=O)[C@H](CC(C)C)NC(=O)[C@@H]2CCCN2C(=O)[C@H](CC(C)C)NC(=O)CNC(=O)[C@H](Cc2ccccc2)NC(=O)[C@@H](NC(=O)CNC(=O)[C@H](CO)NC(=O)[C@H](CO)NC(=O)[C@H](CC(C)C)NC(=O)CNC(=O)[C@H](CCCCN)NC(=O)[C@H](CCCCN)NC(=O)[C@H](CCC(N)=O)NC(=O)[C@H](C)NC(=O)CNC(=O)[C@H](CCC(=O)O)NC(=O)[C@H](Cc2ccc(O)cc2)NC(=O)COCCOCCNC(=O)COCCOCCNC(=O)CC[C@H](NC(=O)CCCCCCCCCCCCCCCCC(=O)O)C(=O)O)CSSC[C@@H](C(=O)O)NC(=O)CNC(=O)[C@H](CC(C)C)NC(=O)CNC(=O)[C@H](CO)NC(=O)[C@H](CC(C)C)NC(=O)[C@H](CO)NC(=O)CNC1=O [Compound 1227] ({C18 diacid-γGlu-AEEA-AEEA}-YEGAQKKGLSSGCFGLPLDRIGSLSGLGC-OH; disulfide 13-29)
clearance [1, 4]: 5.54 mL/h/kg
half-life [1, 5]: 11 h
bioavailability ([1]; sc, Domestic LYD pig, s.c. bioavailability, read-out: F (%), Subcutaneous PK): 55%
half-life ([1]; sc, Domestic LYD pig, s.c., read-out: T½, sc (converted)): 9 h

CC[C@H](C)[C@@H]1NC(=O)[C@H](CCCNC(=N)N)NC(=O)[C@H](CC(=O)O)NC(=O)[C@H](CC(C)C)NC(=O)[C@H](CCCCN)NC(=O)[C@H](CC(C)C)NC(=O)CNC(=O)[C@H](Cc2ccccc2)NC(=O)[C@@H](NC(=O)CNC(=O)[C@H](CCCCN)NC(=O)[C@H](CO)NC(=O)[C@H](CC(C)C)NC(=O)CNC(=O)[C@H](CCCCN)NC(=O)[C@H](CCCCN)NC(=O)[C@H](CCC(N)=O)NC(=O)[C@H](C)NC(=O)CNC(=O)[C@H](Cc2c[nH]cn2)NC(=O)[C@H](CCC(=O)O)NC(=O)COCCOCCNC(=O)COCCOCCNC(=O)CC[C@H](NC(=O)CCCCCCCCCCCCCCCCC(=O)O)C(=O)O)CSSC[C@@H](C(=O)O)NC(=O)CNC(=O)[C@H](CC(C)C)NC(=O)CNC(=O)[C@H](CO)NC(=O)[C@H](CC(C)C)NC(=O)[C@H](CO)NC(=O)CNC1=O [Compound 1235]
bioavailability ([1]; LYD (domestic), pig, sc): 25%
clearance ([1]; LYD, pig, iv): 3.28 mL/h/kg
half-life ([1]; LYD, pig, iv): 20 h
half-life ([1]; LYD, pig, sc): 29 h

CC[C@H](C)[C@@H]1NC(=O)[C@H](CCCNC(=N)N)NC(=O)[C@H](CC(=O)O)NC(=O)[C@H](CC(C)C)NC(=O)[C@H](CCCCN)NC(=O)[C@H](CC(C)C)NC(=O)CNC(=O)[C@H](Cc2ccccc2)NC(=O)[C@@H](NC(=O)CNC(=O)[C@H](CCCCN)NC(=O)[C@H](CO)NC(=O)[C@H](CC(C)C)NC(=O)CNC(=O)[C@H](CCCCN)NC(=O)[C@H](CCCCN)NC(=O)[C@H](CC(N)=O)NC(=O)[C@H](C)NC(=O)CNC(=O)[C@H](CCCCN)NC(=O)[C@H](Cc2ccc(O)cc2)NC(=O)[C@H](CCCCN)NC(=O)[C@H](CCCNC(=N)N)NC(=O)[C@H](C)NC(=O)[C@H](CC(N)=O)NC(=O)[C@@H]2CCCN2C(=O)[C@H](Cc2c[nH]cn2)NC(=O)[C@H](CCC(=O)O)NC(=O)[C@H](CCC(N)=O)NC(=O)CNC(=O)[C@@H]2CCCN2)CSSC[C@@H](C(=O)O)NC(=O)CNC(=O)[C@H](CC(C)C)NC(=O)CNC(=O)[C@H](CO)NC(=O)[C@H](CCSC)NC(=O)[C@H](CO)NC(=O)CNC1=O [compound 0106]
EC50 ([2]; 0% HSA, HEK293-hNPR2/GloSensor cells): 0.18 nM
hNPR2 0% HSA. [EC50% rel CNP] ([2]; potency relative to CNP22 (0065)): 201.1%
injection site reactions [3]: no observable injection site reactions
